For 81 molecules, IC50 results are on record in paper PMC8116589, “Distinguishing Signal From Noise in Immunopeptidome Studies of Limiting-Abundance Biological Samples: Peptides Presented by I-A^b in C57BL/6 Mouse Thymus” (Frontiers in Immunology, 2021).

Where no end group is shown, it is not given here.

B1: … (Complement C4-B peptide) (peptide)
peptide: ARYIYGKPVQGVAYTR
B2: … (Semaphorin-4D peptide) (peptide)
peptide: GRKFVYAGSNSGVVQ
B3: … (B-cell antigen receptor complex-associated protein alpha chain peptide) (peptide)
peptide: GTTGQLFFPEVNKNHR
B4: … (L-amino-acid oxidase isoform 2 peptide) (peptide)
peptide: GALLLNAPVVSITQGR
B5: … (Prostaglandin-H2 D-isomerase isoform 2 peptide) (peptide)
peptide: APGHYTYSSPHSGSIH
B6: … (Sortilin-related receptor peptide) (peptide)
peptide: GIDPYDQPNAIYIER
B7: … (H-2 class II histocompatibility antigen, A beta chain peptide) (peptide)
peptide: HNYEGPETHTSLRRL
B8: … (Heat shock protein HSP 90-beta peptide) (peptide)
peptide: LSSGFSLEDPQTHSNRIY
B9: … (Alpha-enolase peptide) (peptide)
peptide: PSRYITPDQLADLYK
B10: … (Beta-2-microglobulin peptide) (peptide)
peptide: YVTQFHPPHIEIQ
B11: … (Gelsolin isoform 2 peptide) (peptide)
peptide: AAYLWVGAGASEAEKT
B12: … (Serum albumin peptide) (peptide)
peptide: LVRYTQKAPQVSTPTLV
B13: … (B-cell antigen receptor complex-associated protein alpha chain peptide) (peptide)
peptide: PGQGTTGQLFFPEVNKN
B14: … (H-2 class II histocompatibility antigen, A beta chain peptide) (peptide)
peptide: SLRRLEQPNVVISLSR
B15: … (Gelsolin isoform 2 peptide) (peptide)
peptide: AMLQVLGPKPALPEG
B16: … (Alpha-enolase peptide) (peptide)
peptide: HIADLAGNPEVILPVPA
B17: … (NEDD4 family-interacting protein 1 peptide) (peptide)
peptide: FPKPPSYNVATTLPSYDE
B18: q… (Complement C3 peptide) (peptide)
peptide: QQLAFKQPSSAYAAFN
B19: … (Sortilin-related receptor peptide) (peptide)
peptide: RVLIPYQGPSSDYVVVK
B20: … (Nucleophosmin peptide) (peptide)
peptide: VEEDAESEDEDEEDVKLLGMSGK
B21: … (Tenascin peptide) (peptide)
peptide: ATVSWRAPTAQVESFR
B22: … (Apolipoprotein E peptide) (peptide)
peptide: TNPIITPVAQENQ
B23: … (78 kDa glucose-regulated protein peptide) (peptide)
peptide: ITPSYVAFTPEGERL
B24: … (Ig mu chain C region peptide) (peptide)
peptide: LPQEKYVTSAPMPEPG
B25: … (Protein shisa-5 isoform 2 peptide) (peptide)
peptide: GPPPYHESLAGASQPP

The target of one assay is T1, I-A^b (Mus musculus, UniProt P14434+P14483).
T1 sequence (P14434 24-218 limits assumed): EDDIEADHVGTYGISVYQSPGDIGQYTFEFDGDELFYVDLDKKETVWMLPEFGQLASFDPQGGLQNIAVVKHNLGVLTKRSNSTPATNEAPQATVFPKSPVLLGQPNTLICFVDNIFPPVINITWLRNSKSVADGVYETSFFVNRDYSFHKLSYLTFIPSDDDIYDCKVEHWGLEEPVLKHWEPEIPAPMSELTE
T1 sequence (P14483 28-226 limits assumed): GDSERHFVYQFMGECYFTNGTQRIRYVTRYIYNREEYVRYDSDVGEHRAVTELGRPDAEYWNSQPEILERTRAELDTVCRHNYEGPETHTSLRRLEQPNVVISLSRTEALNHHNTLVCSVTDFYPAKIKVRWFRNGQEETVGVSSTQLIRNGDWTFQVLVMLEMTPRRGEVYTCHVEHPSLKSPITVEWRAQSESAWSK
The experiment in a line: biochemical.
Method: A fluorescence polarization (FP) assay was used to measure the IC50 of using N-terminally-acetylated CLIP peptide labeled with Alexa Fluor 488 tetrafluorophenyl ester (Invitrogen, Carlsbad, CA) via the primary amine at K3 as probe peptide as previously described ([34]). The binding reactions were carried in buffer conditions of 100 mM sodium citrate, 50 mM sodium chloride, 0.1% octyl β-D-glucopyranoside, 5 mM ethylenediaminetetraacetic acid, 0.1% sodium azide, 0.2 mM iodoacetic acid, 1 mM dithiothreitol). […] Thrombin is added during all the reactions at a concentration of 1U/ug and inactivated after 3hrs of reaction using 0.1mM phenylmethanesulfonyl fluoride. […] For calculating IC50 values, 100 nM I-A^b-3R was incubated with 25 nM Alexa488-labeled CLIP probe peptide, in combination with a serial dilution of test peptides, beginning at 100 µM followed by 5-fold dilutions in presence of 0.5µM HLA-DM. The reaction mixture was incubated at 37°C. The capacity of each test peptide to compete for binding of probe peptide was measured by FP after 72 h at 37°C. The assay was read using a Victor X5 Multilabel plate reader (PerkinElmer, Shelton, CT). FP values were converted to fraction bound by calculating [(FP_sample - FP_free)/(FP_no_comp - FP_free)], where FP_sample represents the FP value in the presence of test peptide; FP_free represents the value for free Alexa488-conjugated CLIP peptide; and FP_no_comp represents values in the absence of competitor peptide. We plotted fraction bound versus concentration of test peptide and fit the curve to the equation y = 1/(1 +[pep]/IC50), where [pep] is the concentration of test peptide, y is the fraction of probe peptide bound at that concentration of test peptide, and IC50 is the 50% inhibitory concentration of the test peptide.
Take AAYLWVGAGASEAEKT: the 50% inhibitory concentration (IC50) (usually the concentration needed to halve the response being measured) was 276 nM. On to AGKLQDQGPDVLLAKVS, for which the concentration for half-maximal inhibition (IC50) is 378 nM.

Take AGTGVDNVDLEAATR: inhibition was half-maximal at 57500 nM (IC50). AMLQVLGPKPALPEG: the IC50 was determined as 1170 nM. The molecule APGHYTYSSPHSGSIH displayed a 50% inhibitory concentration (IC50) of 1580 nM. On the same count and under the same terms, the figure for APTSALGPKASPAPS is 2300 nM. Same read-out and setting: the figure for AQRAGYKAAIVHNVDS is 2420 nM; for ARYIYGKPVQGVAYTR it is 153 nM.

For ATVSWRAPTAQVESFR, the IC50 came out at 407 nM. Take AVLLPKKSSATVGPKAPAVGK: the half-maximal inhibitory concentration (IC50) is 13600 nM.

DGELTYENVQVSPVPGGPP returned an IC50 of 1360 nM.

EKPVPAAPVPSPVAPAP gave an IC50 of 1140 nM.

In turn, FPKPPSYNVATTLPSYDE came in with an IC50 of 231 nM. On to GALLLNAPVVSITQGR, for which the IC50 stood at 1660 nM. The same measure, in the same setting: the figure for GGSTDYNAAFISRLS is 4960 nM; for GIDPYDQPNAIYIER it is 167 nM; for GIVNLKSPKTTSATKI it is 12800 nM. GKYTYGKPVPGHVKI displayed an IC50 of 399 nM.

The molecule GPGSREAASPVAITVQE displayed a concentration for half-maximal inhibition (IC50) of 467 nM. Molecule GPPPYHESLAGASQPP returned a 50% inhibitory concentration (IC50) of 1500 nM. In the case of GRKFVYAGSNSGVVQ, the IC50 was determined as 1480 nM.

GTTGQLFFPEVNKNHR registered an IC50 of 2640 nM. HIADLAGNPEVILPVPA registered an IC50 of 13900 nM. Same read-out and setting: in the case of HLNTYDGSHTLRVSQS it was 1360 nM; in that of HNYEGPETHTSLRRL, 797 nM; in that of IRRYGVSQPDAVAAWK, 250 nM. The same measure, in the same setting: the figure for ISKQEYDESGPSIVHR is 15200 nM; for ITPSYVAFTPEGERL it is 1890 nM; for IYEAYRQGQANLEAL [IYEAYRQGQANLEAL] it is 1370 nM. Still for that read-out and setting: the figure for KDITTVNFPPALASGGG is 970 nM; for KPSIFHDAKSEIIKGHA it is 4960 nM. KPTVTVVSPLPNDSINPQP yielded an IC50 of 2250 nM. In turn, KWKALYTDPKSSETA came in with an IC50 of 3450 nM. Turning to LLPKYSFAKPSIVSDK, the midpoint of inhibition, the IC50, lay at 179 nM. On to LNLPTGIPIVYEL, for which inhibition was half-maximal at 54400 nM (IC50). LPGELAKHAVSEGTKA showed an IC50 of 32000 nM. Same read-out and setting: the figure for LPQEKYVTSAPMPEPG is 562 nM. On to LSSGFSLEDPQTHSNRIY, for which the IC50 was 13300 nM. In turn, LVRYTQKAPQVSTPTLV registered an IC50 of 765 nM. Molecule NDWTVDHPQTLFAWEG returned an IC50 of 445 nM. As to NVLRIINEPTAAAIA, inhibition was half-maximal at 337 nM (IC50). Still for that read-out and setting: in the case of PGQGTTGQLFFPEVNKN it was 2900 nM; in that of PHPYPALTPEQKKELSDIAHRIVAPGKG, 10900 nM. PSRYITPDQLADLYK registered an IC50 of 2910 nM. QVLSWSSPVGSRTLA returned an IC50 of 152 nM.

For the molecule RVLIPYQGPSSDYVVVK, the half-maximal inhibitory concentration (IC50) stood at 275 nM. Same read-out and setting: the figure for RVTIAQGGVLPNIQ is 26000 nM; for SDLHAFSGSAAWDDS it is 1090 nM; for SDLHAFSGSAAWDDSAG it is 1920 nM. Molecule SLRRLEQPNVVISLSR came in with an IC50 of 93.8 nM. In turn, TNPIITPVAQENQ returned a 50% inhibitory concentration (IC50) of 1740 nM. On to VEEDAESEDEDEEDVKLLGMSGK, for which half-maximal inhibition (IC50) was put at 111000 nM. Molecule VGTARYMAPEVLESR displayed an IC50 of 197 nM. As to VGTARYMAPEVLESRM, the 50% inhibitory concentration (IC50) amounted to 306 nM. As for YSMGMHTYQVG, the IC50 was found to be 74100 nM. Turning to YVTQFHPPHIEIQ, the half-maximal inhibitory concentration (IC50) was 1070 nM.

For a further assay, the target named is soluble I-A^b-3R, mouse MHC-II protein (recombinant I-A^b) (mouse). The experiment in a line: fluorescence polarisation; competition: 100 nM I-A^b-3R (3R cut off by thrombin, 1 U/ug), 25 nM Alexa488-labeled CLIP probe peptide, test peptide from 100 uM in 5-fold dilutions, 0.5 uM HLA-DM, read after 72 h at 37 C; 100 mM sodium citrate, 50 mM NaCl, 0.1% octyl glucoside, 5 mM EDTA, 1 mM DTT; three independent experiments, mean and SD.
Take B1: the IC50 came to 153 nM. For B2, the half-inhibitory concentration (IC50) came out at 1480 nM. Same read-out and setting: in the case of B3 it was 2640 nM.

Consider B4, for which the IC50 was 1660 nM.

Turning to B5, the IC50 worked out at 1580 nM.

Regarding B6, the 50% inhibitory concentration (IC50) was determined as 167 nM.

For the molecule B7, the IC50 came to 797 nM. With B8, the IC50 is 13300 nM.

With B9, the IC50 came out at 2910 nM. As for B10, the half-maximal inhibitory concentration (IC50) came out at 1070 nM. For the molecule B11, the IC50 was determined as 276 nM.

As to B12, the IC50 came out at 765 nM. On to B13, for which the IC50 was 2900 nM. On to B14, for which the IC50 amounted to 93.8 nM. On the same count and under the same terms, the figure for B15 is 1180 nM.

In the case of B16, the IC50 was determined as 13900 nM. As for B17, the IC50 came out at 231 nM. On the same count and under the same terms, in the case of B18 it was 170 nM. The same measure, in the same setting: the figure for B19 is 275 nM; for B20 it is 111000 nM; for B21 it is 407 nM. For the molecule B22, the IC50 amounted to 1740 nM.

For the molecule B23, the IC50 was 1890 nM. As for B24, the IC50 worked out at 562 nM. The same measure, in the same setting: in the case of B25 it was 1500 nM.
